# Results published in patent publication US20180312493A1, “Antibiotic Compounds, Pharmaceutical Formulations Thereof And Methods And Uses Therefor” (Simon Fraser University, priority 2015, published 2018).
# Read-outs that look alike come from different tables or passages of the source.
# Legend:
# [1] = tested on: VRE#2 (2010A); experiment: In vitro susceptibility, broth microdilution (MIC); type: cell-based, vancomycin resistant Enterococci; conditions: VRE#2 (2010A); read-out: Antimicrobial activity (MIC) VRE#2
# Method in brief: (§1)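 MIC determined by CLSI 2-fold broth microdilution in cation-adjusted Mueller–Hinton broth at ~2.5×10^5 CFU/ml, final compound 0.031–64 μg/ml, 18–24 h at 37 °C. MIC is the lowest concentration giving complete growth inhibition by background-corrected OD600 versus compound-free wells; duplicate or triplicate wells, replicated at least twice.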
# [2] = tested on: MRSA MW2 (USA400); experiment: In vitro susceptibility, broth microdilution (MIC); type: cell-based, methicillin resistant S. aureus; conditions: Staphylococcus aureus; MRSA MW2 (USA400); read-out: Antimicrobial activity (MIC) MSRA USA400
# Method in brief: as §1
# [3] = tested on: S. aureus (ATCC29213); experiment: In vitro susceptibility, broth microdilution (MIC); type: cell-based; conditions: Staphylococcus aureus; S. aureus ATCC29213; 18-24 h, 37 C; read-out: Antimicrobial activity (MIC) S. aureus ATCC29213
# Method in brief: (§2)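 CLSI 2-fold serial broth microdilution; K. pneumoniae C238 grown in L-broth, S. aureus ATCC 29213 in Mueller Hinton broth, plates incubated 18–24 h at 37 °C. MIC taken as lowest concentration giving complete growth inhibition by OD600 versus compound-free wells, background-subtracted.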
# [4] = tested on: K. pneumoniae (C238); experiment: In vitro susceptibility, broth microdilution (MIC); type: cell-based; conditions: Klebsiella pneumoniae, read-out: Antimicrobial activity (MIC) K. pneumoniae
# Method in brief: as §2
# [5] = target: T1, MRSA Pyk (Staphylococcus aureus, UniProt Q6GG09); experiment: MRSA pyruvate kinase (PK) activity, continuous LDH-coupled assay; type: biochemical, methicillin resistant S. aureus (MRSA252)
# T1 construct: made in house; host or cells: E. coli BL-21 (DE3)
# T1 sequence (Q6GG09 whole entry): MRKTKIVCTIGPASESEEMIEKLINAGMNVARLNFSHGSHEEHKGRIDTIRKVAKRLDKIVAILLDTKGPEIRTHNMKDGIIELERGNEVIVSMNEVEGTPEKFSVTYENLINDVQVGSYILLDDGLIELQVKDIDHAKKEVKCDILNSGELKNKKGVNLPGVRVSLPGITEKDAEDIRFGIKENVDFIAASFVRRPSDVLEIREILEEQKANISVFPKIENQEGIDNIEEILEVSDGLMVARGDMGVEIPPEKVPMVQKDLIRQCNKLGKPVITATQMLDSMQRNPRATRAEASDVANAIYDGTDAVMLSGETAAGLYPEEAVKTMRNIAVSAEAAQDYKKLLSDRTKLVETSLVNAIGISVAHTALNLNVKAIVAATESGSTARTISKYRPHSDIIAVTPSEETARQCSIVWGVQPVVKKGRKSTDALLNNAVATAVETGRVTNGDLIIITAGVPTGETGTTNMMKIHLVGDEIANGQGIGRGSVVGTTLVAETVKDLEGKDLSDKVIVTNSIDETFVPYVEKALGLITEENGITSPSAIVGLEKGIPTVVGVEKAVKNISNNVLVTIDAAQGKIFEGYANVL
# Method in brief: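 Activity monitored continuously as absorbance change at 340 nm from NADH oxidation via coupled lactate dehydrogenase, reactions started with 15 nM recombinant His-tagged PK (MRSA or human isoform) and run at 30° C for up to 5 min. Ki derived by varying inhibitor (0-400 nM) and PEP (2-20 mM) at 2 mM ADP; IC50 by four-parameter fitting.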
# [6] = tested on: A. baumannii (ATCC 17978); experiment: In vitro susceptibility, broth microdilution (MIC); type: cell-based; conditions: Acinetobacter baumannii, ATCC17978; A. baumannii ATCC 17978 (values marked *); read-out: Antimicrobial activity (MIC) A. baumannii
# Method in brief: as §1
# [7] = tested on: MRSA (ATCC BAA-1762); experiment: In vitro susceptibility, broth microdilution (MIC); type: cell-based, methicillin resistant S. aureus; conditions: Staphylococcus aureus; MRSA ATCC BAA-1762; read-out: Antimicrobial activity (MIC) MRSA ATCC BAA1762
# Method in brief: as §1
Compound,MIC [1] [µg/mL],MIC [2] [µg/mL],MIC [3] [µg/mL],MIC ([4]; K. pneumoniae (C238)) [µg/mL],IC50 [5] [nM],MIC [6] [µg/mL],MIC [4] [µg/mL],MIC [7] [µg/mL]
"O=C(NCCC1CCC(O)CC1)c1c(/C=C/c2ccc(Cl)cc2)[nH]c2cc(Br)ccc12 (stereo not drawn) [Compound 41, (E)-6-Bromo-2-(4-chlorostyryl)-N-(2-(4-hydroxycyclohexyl)ethyl)-1H-indole-3-carboxamide]",> 64,> 64,> 64,> 64,< 100,–,–,–
"CN1CCN(CCNC(=O)c2c(-c3cc4cc(Cl)ccc4[nH]3)[nH]c3cc(Br)ccc23)CC1 [Compound 72, 6-Bromo-5′-chloro-N-(2-(4-methylpiperazin-1-yl)ethyl)-1H,1′H-[2,2′-biindole]-3-carboxamide]",8,–,8,8,< 100,> 64,–,–
"CN(C)CCc1c(-c2cc3cc(Cl)ccc3[nH]2)[nH]c2cc(Br)ccc12 [Compound 77, 2-(6-Bromo-5′-chloro-1H,1′H-[2,2′-biindol]-3-yl)-N,N-dimethylethan-1-amine]",–,4,4,–,< 100,–,4,–
"CN(C)CCNC(=O)c1c(NC(=O)c2ccc(Cl)cc2)[nH]c2cc(Br)ccc12 [Compound 84, 6-Bromo-2-(4-chlorobenzamido)-N-(2-(dimethylamino)ethyl)-1H-indole-3-carboxamide]",–,> 64,64,16,–,–,–,–
"O=S(=O)(Nc1nc2cc(Br)ccc2s1)c1ccc(Cl)cc1 [Compound 101, N-(5-bromobenzo[d]thiazol-2-yl)-4-chlorobenzenesulfonamide]",–,> 64,8,32,–,–,–,–
"Clc1ccc(-c2cc3[nH]c4cc(Br)ccc4c3nc2-c2ccccc2)cc1 [Compound 112, 7-bromo-3-(4-chlorophenyl)-2-phenyl-5H-pyrido[3,2-b]indole]",> 64,–,32,> 64,100 to 1000,> 64,–,–
"CN(C)c1cc[n+](CCCNC(=O)c2c(-c3cc4cc(Cl)ccc4[nH]3)[nH]c3cc(Br)ccc23)cc1 [Compound 145, 1-(3-(6-bromo-5′-chloro-1H, 1′H-[2,2′-biindole]-3-carboxamido)propyl)-4-(dimethylamino)pyridin-1-ium]",16,–,8,–,< 100,> 64,–,16
"O=C(NCCC[n+]1ccc2ccccc2c1)c1c(-c2cc3cc(Cl)ccc3[nH]2)[nH]c2cc(Br)ccc12 [Compound 146, 2-(3-(6-bromo-5′-chloro-1H,1′H-[2,2′-biindole]-3-carboxamido)propyl)isoquinolin-2-ium]",64,–,32,–,< 100,> 64,–,32
"C[N+](C)(C)CCCNC(=O)c1c(-c2cc3cc(Cl)ccc3[nH]2)[nH]c2cc(Br)ccc12 [Compound 147, 3-(6-bromo-5′-chloro-1H,1′H-[2,2′-biindole]-3-carboxamido)-N,N,N-trimethylpropan-1-aminium]",16,–,16,–,< 100,> 64,–,16
"COc1ccc(NC(=O)Nc2nc3cc(Br)ccc3s2)cc1 [Compound 152, 1-(5-bromobenzo[d]thiazol-2-yl)-3-(4-methoxyphenyl)urea]",2,–,1,–,–,> 64,–,1
"O=C(Nc1ccc(Cl)c(Cl)c1)Nc1nc2cc(Br)ccc2s1 [Compound 155, 1-(5-bromobenzo[d]thiazol-2-yl)-3-(3,4-dichlorophenyl)urea]",0.5,–,0.5,–,–,> 64,–,0.5
"O=C(Nc1ccc(Cl)c(C(F)(F)F)c1)Nc1nc2cc(Br)ccc2s1 [Compound 156, 1-(5-bromobenzo[d]thiazol-2-yl)-3-(4-chloro-3-(trifluoromethyl)phenyl)urea]",1,–,0.5,–,–,64,–,1
"O=C(NCc1ccccc1)Nc1nc2cc(Br)ccc2s1 [Compound 158, 1-benzyl-3-(5-bromobenzo[d]thiazol-2-yl)urea]",2,–,2,–,–,> 64,–,1
"CC(C)[C@@H](C(=O)OCCCNC(=O)c1c(-c2cc3cc(Cl)ccc3[nH]2)[nH]c2cc(Br)ccc12)N(C)C [Compound 185, 3-(6-Bromo-5′-chloro-1H,1′H-[2,2′-biindole]-3-carboxamido)propyl Dimethyl-L-valinate]",–,–,> 64,–,< 100,> 64,–,–
"COC(=O)COc1cc2[nH]c(-c3cc4ccc(Br)cc4[nH]3)cc2cc1Cl [Compound 188, Methyl 2-((6′-bromo-5-chloro-1H,1′H-[2,2′-biindol]-6-yl)oxy)acetate]",–,–,> 64,–,< 100,> 64,–,–
"CN(C)CCNC(=O)COc1cc2[nH]c(-c3cc4ccc(Br)cc4[nH]3)cc2cc1Cl [Compound 189, 2-((6′-Bromo-5-chloro-1H,1′H-[2,2′-biindol]-6-yl)oxy)-N-(2-(dimethylamino)ethyl)acetamide]",–,–,> 64,–,< 100,> 64,–,–
"O=C(COc1cc2[nH]c(-c3cc4ccc(Br)cc4[nH]3)cc2cc1Cl)NCCC[n+]1ccccc1 [Compound 190, 1-(3-(2-((6′-Bromo-5-chloro-1H,1′H-[2,2′-biindol]-6-yl)oxy)acetamido)propyl)pyridin-1-ium Acetate]",16,–,8,–,< 100,> 64,–,8
"O=C(COc1cc2[nH]c(-c3cc4ccc(Br)cc4[nH]3)cc2cc1Cl)NCCO [Compound 192, 2-((6′-Bromo-5-chloro-1H,1′H-[2,2′-biindol]-6-yl)oxy)-N-(2-hydroxyethyl)acetamide]",–,–,> 64,–,< 100,> 64,–,–
"O=C(COc1cc2[nH]c(-c3cc4ccc(Br)cc4[nH]3)cc2cc1Cl)NS(=O)(=O)c1ccc(NC(=O)C(F)(F)F)cc1 [Compound 195, N-(4-(N-(2-((6′-Bromo-5-chloro-1H, 1′H-[2,2′-biindol]-6-yl)oxy)acetyl)sulfamoyl)phenyl)-2,2,2-trifluoroacetamide]",–,–,64,–,< 100,> 64,–,64
"CN(C)CCc1c(-c2nc3cc(Cl)c(Cl)cc3[nH]2)[nH]c2cc(Br)ccc12 [Compound 202, 2-(6-Bromo-2-(5,6-dichloro-1H-benzo[d]imidazol-2-yl)-1H-indol-3-yl)-N,N-dimethylethan-1-amine]",4,–,4,–,< 100,> 64,–,4
"O=C(O)CNC(=O)c1c(-c2cc3cc(Cl)ccc3[nH]2)[nH]c2cc(Br)ccc12 [Compound 204, (6-Bromo-5′-chloro-1H,1′H-[2,2′-biindole]-3-carbonyl)glycine]",–,–,64,–,< 100,> 64,–,–
"Clc1ccc2[nH]c(-c3cc4ccc(Br)cc4[nH]3)nc2n1 [Compound 208, 2-(6-Bromo-1H-indol-2-yl)-5-chloro-1H-imidazo[4,5-b]pyridine]",16,–,8,–,> 1000,> 64,–,8
